According to ChEMBL document CHEMBL4130400, “Development of GLUT4-selective antagonists for multiple myeloma therapy” (Eur J Med Chem, 2017):
pIC50: −log10 of the molar value. Activity calls are given as the source filed them. No cut-off for these calls is given here.

Experiments:
[1] = test system: KMS-11; test: Antiproliferative activity against human KMS11 cells over-expressing GFP after 72 hrs by CellTiter-Glo assay; format: functional, cell-based; details: KMS-11, 72 h
[2] = target: T1, Solute carrier family 2, facilitated glucose transporter member 4 (Homo sapiens, UniProt P14672); test: Antagonist activity at human GLUT4 expressed in HEK293 cells transfected with GLUT1 shRNA assessed as inhibition of [3H]2-deoxy-D-glucose uptake preincubated for 5 mins followed by [3H]2-deoxy-D-glucose addition and measured after 6 mins; format: cell-based
T1 sequence (P14672 whole entry): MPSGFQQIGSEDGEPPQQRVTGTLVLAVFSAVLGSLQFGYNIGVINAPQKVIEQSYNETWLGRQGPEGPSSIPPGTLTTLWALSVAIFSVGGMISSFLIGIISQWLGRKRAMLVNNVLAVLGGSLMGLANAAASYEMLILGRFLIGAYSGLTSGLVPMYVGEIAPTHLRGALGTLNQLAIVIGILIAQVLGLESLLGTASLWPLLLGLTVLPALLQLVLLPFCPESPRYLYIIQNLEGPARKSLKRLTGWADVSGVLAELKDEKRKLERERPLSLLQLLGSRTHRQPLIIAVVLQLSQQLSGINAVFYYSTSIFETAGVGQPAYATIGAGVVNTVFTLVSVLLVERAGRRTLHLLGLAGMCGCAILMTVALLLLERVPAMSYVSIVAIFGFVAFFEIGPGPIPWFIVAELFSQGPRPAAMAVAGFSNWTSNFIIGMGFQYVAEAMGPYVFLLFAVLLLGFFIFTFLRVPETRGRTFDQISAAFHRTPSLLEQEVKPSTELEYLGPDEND

[3] = target: T2, Solute carrier family 2, facilitated glucose transporter member 8 (Homo sapiens, UniProt Q9NY64); test: Antagonist activity at human GLUT8 expressed in HEK293 cells transfected with GLUT1 shRNA assessed as inhibition of [3H]2-deoxy-D-glucose uptake preincubated for 5 mins followed by [3H]2-deoxy-D-glucose addition and measured after 6 mins; format: cell-based
T2 sequence (Q9NY64 whole entry): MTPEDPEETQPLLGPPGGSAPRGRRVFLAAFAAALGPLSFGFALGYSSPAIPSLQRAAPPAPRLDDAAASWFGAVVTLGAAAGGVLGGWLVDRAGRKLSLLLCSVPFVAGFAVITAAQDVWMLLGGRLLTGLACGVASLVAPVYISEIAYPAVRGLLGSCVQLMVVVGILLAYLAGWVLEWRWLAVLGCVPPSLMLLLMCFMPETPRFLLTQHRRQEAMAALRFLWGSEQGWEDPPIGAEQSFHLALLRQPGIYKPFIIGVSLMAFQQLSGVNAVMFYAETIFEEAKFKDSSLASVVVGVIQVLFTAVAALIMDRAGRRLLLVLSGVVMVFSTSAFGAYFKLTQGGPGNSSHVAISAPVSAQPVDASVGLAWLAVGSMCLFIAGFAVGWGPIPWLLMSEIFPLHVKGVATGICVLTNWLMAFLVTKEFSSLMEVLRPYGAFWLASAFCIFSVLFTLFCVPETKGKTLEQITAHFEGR

[4] = target: T3, Solute carrier family 2, facilitated glucose transporter member 1 (Rattus norvegicus) (UniProt P11167); test: Displacement of ATB-BMPA from rat C-terminal 6His/Myc-tagged GLUT1 expressed in HEK293 cell low density microsome at 20 uM preincubated for 10 mins followed by ATB-BMPA addition measured after 10 mins; format: cell-based
T3 sequence (whole entry): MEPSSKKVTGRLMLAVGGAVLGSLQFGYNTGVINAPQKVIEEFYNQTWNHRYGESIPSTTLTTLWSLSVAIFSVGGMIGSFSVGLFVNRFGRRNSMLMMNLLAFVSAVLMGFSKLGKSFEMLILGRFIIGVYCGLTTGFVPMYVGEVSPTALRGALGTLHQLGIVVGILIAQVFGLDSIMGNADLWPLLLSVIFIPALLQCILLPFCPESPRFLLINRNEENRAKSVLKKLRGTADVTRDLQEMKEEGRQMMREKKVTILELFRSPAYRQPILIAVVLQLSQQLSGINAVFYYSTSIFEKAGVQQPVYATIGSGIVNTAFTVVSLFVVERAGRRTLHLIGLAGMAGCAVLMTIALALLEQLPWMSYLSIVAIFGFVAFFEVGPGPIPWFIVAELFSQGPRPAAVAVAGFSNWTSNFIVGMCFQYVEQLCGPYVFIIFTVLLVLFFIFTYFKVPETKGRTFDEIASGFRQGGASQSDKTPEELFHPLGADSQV

[5] = target: T4, Solute carrier family 2, facilitated glucose transporter member 4 (Rattus norvegicus) (UniProt P19357); test: Displacement of ATB-BMPA from rat C-terminal 6His/Myc-tagged GLUT4 expressed in HEK293 cell low density microsome at 20 uM preincubated for 10 mins followed by ATB-BMPA addition measured after 10 mins; format: cell-based
T4 sequence (whole entry): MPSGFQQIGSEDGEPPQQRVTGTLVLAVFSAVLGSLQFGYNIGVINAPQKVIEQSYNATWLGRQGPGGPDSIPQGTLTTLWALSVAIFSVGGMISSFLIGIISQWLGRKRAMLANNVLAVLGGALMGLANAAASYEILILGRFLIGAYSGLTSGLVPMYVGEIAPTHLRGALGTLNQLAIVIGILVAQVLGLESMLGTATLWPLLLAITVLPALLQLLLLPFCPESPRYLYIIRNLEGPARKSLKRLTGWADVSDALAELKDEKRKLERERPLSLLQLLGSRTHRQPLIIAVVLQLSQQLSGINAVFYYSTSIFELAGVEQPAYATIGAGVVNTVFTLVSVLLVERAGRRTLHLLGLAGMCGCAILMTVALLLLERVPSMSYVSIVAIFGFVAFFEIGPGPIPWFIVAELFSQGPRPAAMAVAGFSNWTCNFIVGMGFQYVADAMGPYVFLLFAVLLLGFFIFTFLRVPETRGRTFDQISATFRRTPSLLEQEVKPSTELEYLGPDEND

[6] = target: T5, Solute carrier family 2, facilitated glucose transporter member 1 (Homo sapiens, UniProt P11166); test: Antagonist activity at human GLUT1 expressed in HEK293 cells transfected with GLUT1 shRNA assessed as inhibition of [3H]2-deoxy-D-glucose uptake preincubated for 5 mins followed by [3H]2-deoxy-D-glucose addition and measured after 6 mins; format: cell-based
T5 sequence (P11166 whole entry): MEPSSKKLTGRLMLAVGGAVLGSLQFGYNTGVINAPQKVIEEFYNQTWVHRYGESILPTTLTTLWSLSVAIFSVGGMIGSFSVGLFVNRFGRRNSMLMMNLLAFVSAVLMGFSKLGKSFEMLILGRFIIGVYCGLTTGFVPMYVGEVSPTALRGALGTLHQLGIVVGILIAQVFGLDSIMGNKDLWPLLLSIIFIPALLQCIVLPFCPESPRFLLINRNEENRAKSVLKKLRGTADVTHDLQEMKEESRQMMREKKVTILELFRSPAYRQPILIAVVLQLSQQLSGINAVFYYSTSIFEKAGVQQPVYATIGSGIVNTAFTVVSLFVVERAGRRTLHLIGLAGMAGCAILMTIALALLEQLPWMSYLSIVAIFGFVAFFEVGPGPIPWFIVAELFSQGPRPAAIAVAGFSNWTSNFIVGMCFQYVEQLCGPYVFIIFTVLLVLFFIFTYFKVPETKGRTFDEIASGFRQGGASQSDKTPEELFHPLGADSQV

Work on `COc1ccc(C(=O)N(Cc2ccncc2)Cc2cccc(OCC3CCN(C(=O)OC(C)(C)C)CC3)c2)cc1` yielded a pIC50 [1] of 5.29.

For `COc1ccc(C(=O)N(Cc2ccncc2)Cc2cccc(OCc3ccc(F)cc3)c2)cc1`, the pIC50 [1] was 4.64.

With `COc1ccc(C(=O)N(Cc2ccncc2)Cc2cccc(OCCc3ccc(F)cc3)c2)cc1` the pIC50 [2] was 5.77, the pIC50 [3] was 5.22 and the Activity [4] was “Active”. For the same molecule, the Activity [5] was “Active” and the pIC50 [6] was < 4.00.

`COc1ccc(C(=O)N(Cc2ccncc2)Cc2cccc(OCC3CCCCC3)c2)cc1` was tested, and the pIC50 [1] was 4.71.

`COc1ccc(C(=O)N(Cc2ccncc2)Cc2cccc(OCc3cccc([N+](=O)[O-])c3)c2)cc1` showed a pIC50 [1] of 4.71.

In the case of `COc1ccc(C(=O)N(Cc2ccncc2)Cc2cccc(OCc3ccc([N+](=O)[O-])cc3)c2)cc1`, the pIC50 [1] was 4.81.

`COc1ccc(C(=O)N(Cc2ccncc2)Cc2cccc(OCC(=O)c3ccc(Cl)cc3)c2)cc1` was tested, and the pIC50 [1] was 4.73.

`O=C(c1ccc(Cl)cc1)N(Cc1ccncc1)Cc1cccc(OCCc2ccc(F)cc2)c1` gave a pIC50 [1] of 4.88.

With `Oc1cccc(CNCc2ccncc2)c1` the pIC50 [2] was 4.70, the pIC50 [3] was < 4.00 and the pIC50 [6] was < 4.00.
